Molecular target: T1, OBR (Homo sapiens, UniProt P48357)
T1 sequence (P48357 22-1165): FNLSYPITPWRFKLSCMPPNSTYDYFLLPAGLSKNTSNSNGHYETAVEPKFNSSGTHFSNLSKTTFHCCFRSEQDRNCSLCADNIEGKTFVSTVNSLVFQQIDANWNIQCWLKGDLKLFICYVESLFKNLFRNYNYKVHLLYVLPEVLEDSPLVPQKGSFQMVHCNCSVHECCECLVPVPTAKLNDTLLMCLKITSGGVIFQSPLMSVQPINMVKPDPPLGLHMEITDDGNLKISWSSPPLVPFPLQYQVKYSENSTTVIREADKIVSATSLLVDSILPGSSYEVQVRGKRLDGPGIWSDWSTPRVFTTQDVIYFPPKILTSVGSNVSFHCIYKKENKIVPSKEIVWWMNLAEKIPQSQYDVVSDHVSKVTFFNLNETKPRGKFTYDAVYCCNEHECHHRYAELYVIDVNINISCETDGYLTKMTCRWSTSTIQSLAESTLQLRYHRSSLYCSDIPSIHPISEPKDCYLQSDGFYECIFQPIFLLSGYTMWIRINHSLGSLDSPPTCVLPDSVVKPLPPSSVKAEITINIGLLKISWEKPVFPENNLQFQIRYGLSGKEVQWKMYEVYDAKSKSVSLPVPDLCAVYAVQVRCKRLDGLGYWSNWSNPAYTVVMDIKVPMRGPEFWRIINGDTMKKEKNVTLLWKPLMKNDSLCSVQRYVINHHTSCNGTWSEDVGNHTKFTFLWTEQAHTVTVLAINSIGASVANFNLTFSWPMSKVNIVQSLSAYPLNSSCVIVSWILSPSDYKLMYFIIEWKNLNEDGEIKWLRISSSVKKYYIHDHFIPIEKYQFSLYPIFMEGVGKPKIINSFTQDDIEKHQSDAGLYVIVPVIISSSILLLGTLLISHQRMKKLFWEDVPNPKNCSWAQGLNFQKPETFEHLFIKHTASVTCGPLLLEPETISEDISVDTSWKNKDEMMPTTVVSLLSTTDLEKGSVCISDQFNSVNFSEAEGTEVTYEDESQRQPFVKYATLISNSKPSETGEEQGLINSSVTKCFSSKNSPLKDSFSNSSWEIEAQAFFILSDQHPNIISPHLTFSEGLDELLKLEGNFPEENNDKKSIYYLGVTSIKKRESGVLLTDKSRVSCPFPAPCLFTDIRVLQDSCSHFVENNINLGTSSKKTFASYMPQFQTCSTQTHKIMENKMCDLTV
Assay: Bio-Layer Interferometry (BLI) binding to OBR
Text: FIG. 5. NRP-1, OBR and leptin interactions confirmation using a Bio-Layer Interferometry (BLI) technology (fortebio.com/bli-technology.html): A-Leptin (OB) interaction to OBR is used as a positive control. Human neuropilin-1 (hNRP-1) interact with human OBR with a high affinity and specifically with human leptin (hOB) but not with murine leptin (mOB). VEGF165 binding to hNRP-1 is used as a positive control. B-Leptin and Avastin association increases MDA-MB231 cells transmigration through […] pore Insert. Avastin treatment may prevent a negative feedback control by VEGF of the pro-angiogenic signaling pathway of Leptin. VEGF binds to OBR which confirms our hypothesis that should be more investigated.

Substance: VEGF
- binding to OBR: binds
